Columns and labels:
AE17 mesothelioma = experiment: Topical treatment of subcutaneous murine AE17 mesothelioma tumours, tumour area by micro-callipers; type: in vivo, C57BL/6J mice; settings: 50 ul topically; 4% terpinen-4-ol, 2% γ-terpinene, 1% α-terpinene, 0.5% 1,8-cineole, 0.5% p-cymene; vs untreated controls
Description: The models used, murine AE17 mesothelioma and murine B16 melanoma tumour, both involve the implantation of tumour cell lines subcutaneously onto the rear flank of fully immuno-competent mice. Palpable tumours arise within 3-14 days.
Female fully immuno-competent C57BL/6J mice between 6-8 weeks of ages are obtained from the Animal Resources Centre (Perth, Australia) and maintained under SPF (specified pathogen free) housing conditions (Animal Care Unit, University of Western Australia).
AE17 cells were derived from the peritoneal cavity of C57BL/6J mice injected with asbestos fibres (Jackaman, 2003) and (Davis, 1992) and are injected subcutaneously at a concentration of 1×10^7 per mouse (Needham, 2006). […]

skin = settings: cited from earlier work
[1] = tested on: B16 melanoma, UV induced squamous carcinoma and Lewis lung carcinoma; settings: 18 μg, 3 topical treatments (Ogbourne, 2004); cited from earlier work

| Compound | AE17 tumour growth, components applied singly with DMSO (AE17 mesothelioma) | skin reaction on topical application (skin) | tumour regression [1] |
| --- | --- | --- | --- |
| CC1=CCC(O)(C(C)C)CC1 (centres unmarked) [terpinen-4-ol] | lack of efficacy |  |  |
| CC12CCC(CC1)C(C)(C)O2 [1,8-cineole] | lack of efficacy |  |  |
| CC1=CC=C(C(C)C)CC1 [α-terpinene] | lack of efficacy |  |  |
| C/C=C(/C)C(=O)O[C@H]1C(C)=C[C@]23C(=O)[C@@H](C=C(CO)[C@@H](O)[C@]12O)[C@H]1[C@@H](C[C@H]3C)C1(C)C [3-Ingenyl-Angelate] |  | elicits skin irritation | induces tumour regression with just 3 topical treatments |
| CC(C)Cn1cnc2c(N)nc3ccccc3c21 [Imiquimod] |  | redness, drying and scabbing |  |
| Cc1ccc(C(C)C)cc1 [p-cymene] | lack of efficacy |  |  |
| CC1=CCC(C(C)C)=CC1 [γ-terpinene] | lack of efficacy |  |  |

From patent US20110293757A1, “Compositions Comprising Tea Tree Oil and Methods for the Prevention and Treatment of Cancer” (priority 2008, published 2011)
